This note sets out measurements from publication PMC10531095, “Photonics of Some Monomethine Cyanine Dyes in Solutions and in Complexes with Biomolecules” (International Journal of Molecular Sciences, 2023).

In this assay the target is T1, human serum albumin (HSA) (Homo sapiens, UniProt P02768).
T1 construct: purchased Sigma-Aldrich
Put plainly: Spectral fluorescent titration of the dyes with HSA in PBS. As to conditions: for nSc, stoichiometric coefficient (Scatchard): HSA (nSc = 1 taken for HSA); for KeffBH, effective complexation constant (Benesi–Hildebrand): fluorescent titration; for αb, proportion of bound dye: cbiomol = 5 × 10^−5 mol L^−1; for Fmax/F0, fluorescence growth at 100% binding: from the Benesi–Hildebrand dependence; for K2Sc, complexation constant (Scatchard): nSc = 1; for φfl^b, fluorescence quantum yield of the dye in the presence of biopolymer: cHSA~5 × 10^−5 mol L^−1; for LOD: detection of HSA; for LOQ: quantification of HSA. In kind it is binding. The text has this: Complexation of MCD 1–4 with DNA (double-stranded and single-stranded) and with human serum albumin (HSA) was studied by spectral fluorescent methods in a wide range of biopolymer concentrations (cdsDNA = 0–1.5 × 10^−4 mol L^−1; cssDNA = 0–1.4 × 10^−4 mol L^−1; cHSA = 0–1.4 × 10^−4 mol L^−1 in PBS buffer). The absorption, fluorescence, and fluorescence excitation spectra of MCD 1 and 3 in the presence of dsDNA are shown in Figure 3 and Figure 4, respectively.
The complication of chemical equilibrium, and the variety of interactions between MCD and biopolymer (dye aggregation/deaggregation, the possibility of forming complexes of several types with DNA/HSA) makes it problematic to determine the exact values of the complexation constants of the dyes with DNA. The values of the effective equilibrium constants of the complexation reaction of MCD with biopolymers (Keff, L mol^−1, see Table 7) were estimated from spectral fluorescent data. In this case, we had to assume a simple equilibrium MCD (monomer, free) ⇄ MCD (monomer, bound). For these purposes, we used the Benesi–Hildebrand [59], Hill, and Scatchard formalisms (See Supplementary Materials, Equations (S9)–(S13)). For dsDNA, fitting according to the modified Scatchard equation was carried out assuming one dye molecule per one DNA turn (K1Sc at nSc = const = 10 b.p.), as well as varying both the constant (K2Sc) and the stoichiometric coefficient (nSc). In the case of ssDNA, nSc is given per one base; for HSA, nSc = 1.
Distilled water, 0.01 M aqueous phosphate buffer saline solution (PBS; pH 7.4, containing 0.137 M NaCl and 0.0027 M KCl), ethanol, benzyl alcohol, isopentyl alcohol, acetonitrile, DMSO, 1,4-dioxane, chloroform, DMSO, acetone, methyl ethyl ketone, ethyl acetate (all analytical grade). Commercial chick erythrocyte DNA (Reanal, Budapest, Hungary) and human serum albumin (HSA, Sigma-Aldrich, St. Louis, MO, USA) were used.
Absorption spectra were recorded on an SF-2000 spectrophotometer (Experimental-Construction Company “Spectrum”, St. Petersburg, Russia); fluorescence and fluorescence excitation spectra were recorded on a Fluorat-02-Panorama spectrofluorimeter (Group of Companies “Lumex”, St. Petersburg, Russia). The fluorescence and fluorescence excitation spectra were corrected for the spectral characteristics of the instrument (excitation channel signal) and sample transmission. Changes in the intrinsic fluorescence of HSA upon binding of MCD (in the presence of the dyes) were recorded in the synchronous fluorescence scanning (SFS) mode. In SFS mode, when registering spectra, a fixed difference Δλ= λfl − λex is maintained for the channels of excitation and registration. Synchronous scanning spectra were obtained at Δλ = 15 nm (fluorescence of tyrosine residues in the HSA molecule) and Δλ = 60 nm (fluorescence of tryptophan). The spectra were measured in 1 cm quartz semi-micro cells (Bio-Rad, Hercules, CA, USA).
The equilibrium constants of MCD complexation with biomolecules (Ka, L mol^−1) were obtained from fluorescence spectra using the Benesi–Hildebrand [59], Hill, and Scatchard equations [61] (see Supplementary Materials, Equations (S9)–(S13)). Limits of detection (LOD) and quantification (LOQ) of biomolecules were determined from concentration plots of MCD fluorescence intensities (see Supplementary Materials, Equations (S14) and (S15)). […]
1. Spectral‐Fluorescent Titration
In experiments on spectral‐fluorescence titration, MCD 1–4 were dosed from their concentrated st ock solutions in EtOH. Microvolumes (~0.5–5 μL) were dosed into the measuring cell (dilution 1:500 – 1:1000). […]
Measurements of the intrinsic fluorescence of HSA in the presence of MCD were carried out at a constant concentration of HSA (cHSA ~ 2.0 × 10–5 mol L–1) by titration with increasing concentrations of dyes. After stirring, the absorption and fluorescence spectra of the dyes were recorded several times. […]

T1 sequence (P02768 25-609): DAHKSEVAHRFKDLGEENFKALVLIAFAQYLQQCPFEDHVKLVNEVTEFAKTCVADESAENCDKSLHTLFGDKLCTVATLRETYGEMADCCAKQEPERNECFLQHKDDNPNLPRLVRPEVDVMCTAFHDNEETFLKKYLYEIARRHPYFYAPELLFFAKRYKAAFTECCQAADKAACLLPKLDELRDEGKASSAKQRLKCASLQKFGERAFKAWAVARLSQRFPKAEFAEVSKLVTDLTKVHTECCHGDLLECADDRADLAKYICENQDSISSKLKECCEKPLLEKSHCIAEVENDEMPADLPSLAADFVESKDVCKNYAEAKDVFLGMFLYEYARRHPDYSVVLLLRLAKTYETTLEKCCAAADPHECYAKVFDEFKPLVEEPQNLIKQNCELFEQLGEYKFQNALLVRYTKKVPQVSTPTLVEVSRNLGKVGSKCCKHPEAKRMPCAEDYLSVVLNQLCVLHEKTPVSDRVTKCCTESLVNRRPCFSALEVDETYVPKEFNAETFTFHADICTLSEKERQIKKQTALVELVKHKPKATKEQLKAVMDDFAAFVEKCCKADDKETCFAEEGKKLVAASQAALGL

With `CCN1/C(=C/c2sc3ccccc3[n+]2CC)Sc2ccccc21` [MCD 3], the “nSc, stoichiometric coefficient (Scatchard)” value (from here on “nSc … (Scatchard)”) was found to be 1; the “φfl^b, fluorescence quantum yield of the dye in the presence of biopolymer” value (“φfl^b, fluorescence quantum yield” below) amounted to 50%; the LOD stood at 77 nM; the LOQ was 230 nM. Moreover, where the note is “HSA”, the “LR, linear portion of fluorescence intensity vs. concentration plot” value was 0 to 1 µmol/L; the “nHill, Hill coefficient” value was 0.59; the “αb, proportion of bound dye” value was 50%; the “Fmax/F0, fluorescence growth at 100% binding” value (from here on “Fmax/F0 … at 100% binding”) is 26. This compound displayed a K2Sc, complexation constant (Scatchard) (HSA) of 34000 L/mol. Under “HSA, PBS buffer”, the KeffHill, effective complexation constant (Hill) is 27800 L/mol and the KeffBH, effective complexation constant (Benesi–Hildebrand) worked out at 17600 L/mol. Under “listed as 3”, the “φfl^b, fluorescence quantum yield” value was around 50 ± 6%.
On to `CCN1/C(=C/c2ccc3ccccc3[n+]2CC)C=Cc2ccccc21` [MCD 4], for which the “nSc … (Scatchard)” value worked out at 1; the “φfl^b, fluorescence quantum yield” value is recorded as around 0.5 ± 0.1%; the LOD is 730 nM; the LOQ was 2200 nM. Under “HSA”, the “LR, linear portion of fluorescence intensity vs. concentration plot” value is recorded as 0.7–7.5 ^2 µmol L^−1; the “nHill, Hill coefficient” value was found to be 0.61; the “αb, proportion of bound dye” value was determined as 20%; the “Fmax/F0 … at 100% binding” value is listed as 109. This compound also had a K2Sc, complexation constant (Scatchard) (HSA) of 17000 L/mol. For the setting “HSA, PBS buffer”, this compound yielded a KeffHill, effective complexation constant (Hill) of 1830 L/mol and a KeffBH, effective complexation constant (Benesi–Hildebrand) of 4820 L/mol. For the same compound, the “drop in the apparent extinction coefficients” value (interaction with HSA) is on record as 1.5–2 fold.
`CC[N+](CC)(CC)CCC[n+]1ccc(/C=C2\Sc3ccccc3N2C)c2ccc(O)cc21` [MCD 1]: the “nSc … (Scatchard)” value is 1; the “φfl^b, fluorescence quantum yield” value is given as around 1 ± 0.1%; the LOD is 270 nM; the LOQ came out at 890 nM. For the setting “HSA”, the “LR, linear portion of fluorescence intensity vs. concentration plot” value is listed as 0–0.6 ^3 µmol L^−1; the “nHill, Hill coefficient” value is 0.89; the “αb, proportion of bound dye” value worked out at 27%; the “Fmax/F0 … at 100% binding” value is 65. Under “HSA”, the K2Sc, complexation constant (Scatchard) turned out to be 7300 L/mol. For the same compound, under “HSA versus dsDNA”, the “lower sensitivity to HSA than to dsDNA” value is recorded as “about 37 times”. For the same compound, where the note is “HSA, PBS buffer”, the KeffHill, effective complexation constant (Hill) came out at 3350 L/mol; the “εf/εb, relative change in molar extinction coefficient on complexation” value is 1.59; the KeffBH, effective complexation constant (Benesi–Hildebrand) was 8000 L/mol. The “hypochromia of the absorption band” value (cHSA = 2.5 × 10^−7 mol L^−1) is listed as ~ 25%. Also, the “hypochromia of the absorption band” value (cHSA~9 × 10^−6 mol L^−1, crel(HSA) = 3) was ~ 36%.
